Read-outs that look alike come from different tables or passages of the source.
Columns and labels:
paddy rice [1] = test: Test Example 1: pot test on selectivity, inhibition of paddy rice; format: in vivo; details: dry weight 30 days after treatment
Protocol: In a Wagner pot of 1/500 are, paddy field soil (alluvial soil) was placed and 50 seeds of Echinochloa crus-galli var. oryzicola and 30 seeds of paddy rice were seeded in the surface layer of said soil and the submerging depth was kept at about 1 cm. […] After 30 days from the treatment with the chemical, dry weights of Echinochloa crus-galli var. oryzicola and paddy rice were measured and the inhibition rate was calculated with reference to untreated area. [formula]
(§1) The comparative chemicals used, i.e. DCMU and Linuron, were those commercially available, and the comparative chemicals A and B used were prepared according to the process for formulating the compound of this invention.

paddy rice [2] = test: whole plant or invertebrate; format: in vivo, paddy rice (Asahi species); details: for Inhibition (%) by treatment at 1-leaf stage of E. crus-galli var. oryzicola, paddy rice / Inhibition (%) by treatment at 5-leaf stage of E. crus-galli var. oryzicola, paddy rice: granule, 30 days; for Inhibition (%) by treatment at 1-leaf stage of E. crus-galli var. oryzicola, paddy rice: rice at 3.5 leaves stage; for Inhibition (%) by treatment at 5-leaf stage of E. crus-galli var. oryzicola, paddy rice: rice at 7 leaves stage; for inhibition at 1000 g/ha / inhibition at 3000 g/ha / inhibition at 9000 g/ha: Oryza sativa, 720 h
Protocol: (§2) In a Wagner pot of 1/500 are, paddy field soil (alluvial soil) was placed and 50 seeds of Echinochloa crus-galli var. oryzicola and 30 seeds of paddy rice were seeded in the surface layer of said soil and the submerging depth was kept at about 1 cm. When Echinochloa crus-galli var. oryzicola reached at the one leaf stage and 5-leaf stage, the emulsion of a predetermined concentration, prepared according to Example 4 was added dropwise. After 30 days from the treatment with the chemical, dry weights of Echinochloa crus-galli var. oryzicola and paddy rice were measured and the inhibition rate was calculated with reference to untreated area. [formula]
(§3) In a concrete pot of 1/400 are (50 cm×50 cm), paddy field soil (alluvial soil) was placed and 200 seeds of Echinochloa crus-galli var. oryzicola were seeded in 10 surface layer of said soil and the soil was submerged at about 3 cm depth. Before emergence of Echinochloa crus-galli var. oryzicola, paddy rice at 2.5-leaf stage (Asahi species) was transplanted at the rate of 8 stubs per pot, planting 3 seedlings per stub. At the one-leaf stage (3.5 leaves stage of paddy rice) and 5 leaves stage (7 leaves stage of paddy rice) of Echinochloa crus-galli var. oryzicola, the granule prepared according to Example 1 was applied. […] 30 Days after the treatment with the chemical, examination was made in the similar manner as Test Example 1 to obtain results as shown in Table 2.
(§4) In the table, as the comparative chemicals CPN, Benthiocarb, Molinate and Simetryne, those commercially available were used and the comparative chemicals A and B (as mentioned before) used were prepared according to the process for preparing the compound of this invention.

[3] = tested on: Echinochloa crus-galli var. oryzicola; test: Test Example 1: pot test on selectivity, inhibition of Echinochloa crus-galli var. oryzicola; format: in vivo; details: dry weight 30 days after treatment
Protocol: as §2, §1

[4] = tested on: Echinochloa crus-galli var. oryzicola; test: Test Example 2: concrete pot test on killing effect, Echinochloa crus-galli var. oryzicola; format: in vivo; details: for Inhibition (%) by treatment at 1-leaf stage of E. crus-galli var. oryzicola, E. crus-galli var. oryzicola / Inhibition (%) by treatment at 5-leaf stage of E. crus-galli var. oryzicola, E. crus-galli var. oryzicola: granule, 30 days after treatment; for inhibition at 1000 g/ha / inhibition at 3000 g/ha / inhibition at 9000 g/ha: Echinochloa crus-galli, 720 h
Protocol: as §2, §3, §4

Bulrush = test: Test Example 5: Wagner pot test, herbicidal effect on Bulrush; format: in vivo; details: 600 g/10a
Protocol: (§5) In a 1/7500 are Wagner pot, sieved paddy field soil (alluvial soil) was charged. Thereafter, in the center portion of the pot, 2 roots of paddy rice (Asahi species) at the 2- to 3-leaf stage were transplanted and 20 seeds of Bulrush per pot were seeded in the surface of the above soil. The pot was submerged at the depth of about 2 cm. The other Dopatrium junceum and umbrella plant were generated naturally. After seeding, when each of the weeds reached the same leaf age as defined in Table 5 given herein, a predetermined concentration of the emulsion prepared according to Example 4 was applied dropwise on the surface of the pot. The test was carried out by repeating the same test three times per area and the results were determined 20 days after the application of the chemicals with regard to the herbicidal effect and chemical injury on paddy rice on the basis of the evaluation index as shown below.
(§6) As the comparative chemicals Molinate, Benthiocarb and DCMU, those commercially available were used.
(§7) In the above table, the inhibition rate was calculated according to the method as described in Test Example 1.

paddy rice [5] = test: Test Example 4: field test in submerged directly seeded paddy field, paddy rice; format: in vivo, paddy rice (Asahi species); details: Oryza sativa, 504 h; 300 g/10 are, emulsion, 2- to 3-leaf stage, 21 days after application
Protocol: as §2
(§8) In a 10 m^2 paddy field, 30 g of Echinochloa crus-galli var. oryzicola seeds were seeded at the time of puddling and the depth of submerging was kept at 3-5 cm. 3 Days after the puddling, 50 g of paddy rice at the emergence stage (Asahi species) were seeded. When Echinochloa crus-galli var. oryzicola and paddy rice reached a 2- to 3-leaf stage, a predetermined dose of the emulsion prepared according to Example 4 was applied uniformly by means of a manual spraying machine. Test results were examined 21 days after the application of the chemicals in the similar manner as in Test Example 1.
(§9) The comparative chemical 1 used was that commercially available and the comparative chemical 2 used was prepared according to Example 4.

paddy rice [6] = test: Test Example 5: Wagner pot test, chemical injury on paddy rice; format: in vivo, paddy rice (Asahi species); details: 600 g/10a; further: key: 5: Completely killed; 4: Considerably injured; 3: Moderately injured; 2: A little injured; 1: Slightly injured; 0: Not injured
Protocol: as §5, §6

Umbrella plant = test: Test Example 5: Wagner pot test, herbicidal effect on umbrella plant; format: in vivo; details: 600 g/10a, 20 days after application
Protocol: as §5, §6, §7

[7] = tested on: Echinochloa crus-galli var. oryzicola; test: Test Example 4: field test in submerged directly seeded paddy field, Echinochloa crus-galli var. oryzicola; format: in vivo; details: Echinochloa crus-galli, 504 h; 300 g/10 are, emulsion, 2- to 3-leaf stage, 21 days after application; read-out: Inhibition (%) of E. crus-galli var. oryzicola
Protocol: as §2, §8, §9

Dopatrium junceum = test: Test Example 5: Wagner pot test, herbicidal effect on Dopatrium junceum; format: in vivo; details: 600 g/10a
Protocol: as §5, §6, §7

[8] = leaf age 3, 20 days after application
[9] = read-out: Inhibition (%) by treatment at 1-leaf stage of E. crus-galli var. oryzicola, paddy rice
[10] = read-out: Inhibition (%) by treatment at 5-leaf stage of E. crus-galli var. oryzicola, paddy rice
[11] = read-out: Inhibition (%) by treatment at 1-leaf stage of E. crus-galli var. oryzicola, E. crus-galli var. oryzicola
[12] = read-out: Inhibition (%) by treatment at 5-leaf stage of E. crus-galli var. oryzicola, E. crus-galli var. oryzicola

CNC(=O)Nc1ccc(OCC=C(C)Cl)cc1 [Comparative chemical B]
Inhibition (%) by treatment at 1-leaf stage, paddy rice (paddy rice [1]; 75 g/10 are): 0% | Inhibition (%) by treatment at 5-leaf stage, paddy rice (paddy rice [1]; 75 g/10 are): 0% | Inhibition (%) by treatment at 1-leaf stage, paddy rice (paddy rice [1]; 150 g/10 are): 0% | Inhibition (%) by treatment at 5-leaf stage, paddy rice (paddy rice [1]; 150 g/10 are): 0% | Inhibition (%) by treatment at 1-leaf stage, paddy rice (paddy rice [1]; 300 g/10 are): 36% | Inhibition (%) by treatment at 5-leaf stage, paddy rice (paddy rice [1]; 300 g/10 are): 0% | Inhibition (%) by treatment at 1-leaf stage, paddy rice (paddy rice [1]; 600 g/10 are): 60% | Inhibition (%) by treatment at 5-leaf stage, paddy rice (paddy rice [1]; 600 g/10 are): 7% | Inhibition (%) by treatment at 1-leaf stage, paddy rice (paddy rice [1]; 900 g/10 are): 72% | Inhibition (%) by treatment at 5-leaf stage, paddy rice (paddy rice [1]; 900 g/10 are): 26% | Inhibition (%) by treatment at 1-leaf stage of E. crus-galli var. oryzicola, paddy rice (paddy rice [2]; 100 g/10 are): 0% | Inhibition (%) by treatment at 5-leaf stage of E. crus-galli var. oryzicola, paddy rice (paddy rice [2]; 100 g/10 are): 0% | Inhibition (%) by treatment at 1-leaf stage of E. crus-galli var. oryzicola, paddy rice (paddy rice [2]; 300 g/10 are): 0% | Inhibition (%) by treatment at 5-leaf stage of E. crus-galli var. oryzicola, paddy rice (paddy rice [2]; 300 g/10 are): 0% | Inhibition (%) by treatment at 1-leaf stage of E. crus-galli var. oryzicola, paddy rice (paddy rice [2]; 900 g/10 are): 40% | Inhibition (%) by treatment at 5-leaf stage of E. crus-galli var. oryzicola, paddy rice (paddy rice [2]; 900 g/10 are): 7% | Inhibition (%) by treatment at 1-leaf stage, E. crus-galli var. oryzicola ([3]; 75 g/10 are): 10% | Inhibition (%) by treatment at 5-leaf stage, E. crus-galli var. oryzicola ([3]; 75 g/10 are): 0% | Inhibition (%) by treatment at 1-leaf stage, E. crus-galli var. oryzicola ([3]; 150 g/10 are): 35% | Inhibition (%) by treatment at 5-leaf stage, E. crus-galli var. oryzicola ([3]; 150 g/10 are): 0% | Inhibition (%) by treatment at 1-leaf stage, E. crus-galli var. oryzicola ([3]; 300 g/10 are): 80% | Inhibition (%) by treatment at 5-leaf stage, E. crus-galli var. oryzicola ([3]; 300 g/10 are): 7% | Inhibition (%) by treatment at 1-leaf stage, E. crus-galli var. oryzicola ([3]; 600 g/10 are): 100% | Inhibition (%) by treatment at 5-leaf stage, E. crus-galli var. oryzicola ([3]; 600 g/10 are): 12% | Inhibition (%) by treatment at 1-leaf stage, E. crus-galli var. oryzicola ([3]; 900 g/10 are): 100% | Inhibition (%) by treatment at 5-leaf stage, E. crus-galli var. oryzicola ([3]; 900 g/10 are): 36% | Inhibition (%) by treatment at 1-leaf stage of E. crus-galli var. oryzicola, E. crus-galli var. oryzicola ([4]; 100 g/10 are): 20% | Inhibition (%) by treatment at 5-leaf stage of E. crus-galli var. oryzicola, E. crus-galli var. oryzicola ([4]; 100 g/10 are): 0% | Inhibition (%) by treatment at 1-leaf stage of E. crus-galli var. oryzicola, E. crus-galli var. oryzicola ([4]; 300 g/10 are): 75% | Inhibition (%) by treatment at 5-leaf stage of E. crus-galli var. oryzicola, E. crus-galli var. oryzicola ([4]; 300 g/10 are): 0% | Inhibition (%) by treatment at 1-leaf stage of E. crus-galli var. oryzicola, E. crus-galli var. oryzicola ([4]; 900 g/10 are): 100% | Inhibition (%) by treatment at 5-leaf stage of E. crus-galli var. oryzicola, E. crus-galli var. oryzicola ([4]; 900 g/10 are): 30%

CCN(CC)C(=O)SCc1ccc(Cl)cc1 [Benthiocarb, 4-chlorobenzyl-N,N-diethylthiolcarbamate]
Weed kill degree, Bulrush (Bulrush; [8]): 2 (60-79) | Weed kill degree, Bulrush (Bulrush; leaf age 3-5, 20 days after application): 4 (90-99) | inhibition at 3000 g/ha (paddy rice [5]): 15% | Chemical injury on paddy rice (paddy rice [6]; 3 tillers, 20 days after application): 0 | Chemical injury on paddy rice (paddy rice [6]; [8]): 2 | Weed kill degree, Umbrella plant (Umbrella plant; leaf age 2 (first group of columns)): 5 (100) | Weed kill degree, Umbrella plant (Umbrella plant; leaf age 2 (second group of columns)): 5 (100) | inhibition at 1000 g/ha (paddy rice [2]; [9]): 0% | inhibition at 3000 g/ha (paddy rice [2]; [9]): 10% | inhibition at 9000 g/ha (paddy rice [2]; [9]): 46% | inhibition at 1000 g/ha (paddy rice [2]; [10]): 0% | inhibition at 3000 g/ha (paddy rice [2]; [10]): 0% | inhibition at 9000 g/ha (paddy rice [2]; [10]): 10% | inhibition at 3000 g/ha [7]: 76% | Weed kill degree, Dopatrium junceum (Dopatrium junceum; leaf age 2, 20 days after application): 5 (100) | Weed kill degree, Dopatrium junceum (Dopatrium junceum; [8]): 5 (100) | inhibition at 1000 g/ha [4, 11]: 82% | inhibition at 3000 g/ha [4, 11]: 100% | inhibition at 9000 g/ha [4, 11]: 100% | inhibition at 1000 g/ha [4, 12]: 0% | inhibition at 3000 g/ha [4, 12]: 6% | inhibition at 9000 g/ha [4, 12]: 23%
